Measurements published in patent US20230265151A1, “GIP/GLP1 CO-AGONIST COMPOUNDS” (priority 2020, published 2023).
Read-outs that look alike come from different tables or passages of the source.

How the values were obtained:
[1] = biological target: T1, human Gcg receptor (hGcgR) (Homo sapiens, UniProt P47871); assay: [125I]-Glucagon binding, SPA with membranes of HEK293 cells expressing hGcgR
T1 construct: expressed in transfected cells; crude membranes

[2] = biological target: T2, human GLP-1 receptor (hGLP-1R) (Homo sapiens, UniProt P43220); assay: [125I]-GLP-1 binding, SPA with membranes of HEK293 cells expressing hGLP-1R
T2 construct: expressed in transfected cells; crude membranes

hGIPR = biological target: T3, hGIPR (Homo sapiens, UniProt P48546); assay: Functional cAMP formation (HTRF) in HEK-293 clonal cells expressing hGIPR, 0.1% bovine casein, without or with 1.0% human serum albumin; type: cell-based; details: for EC50: geometric mean
T3 construct: expressed in transfected cells
T3 sequence (P48546 22-466): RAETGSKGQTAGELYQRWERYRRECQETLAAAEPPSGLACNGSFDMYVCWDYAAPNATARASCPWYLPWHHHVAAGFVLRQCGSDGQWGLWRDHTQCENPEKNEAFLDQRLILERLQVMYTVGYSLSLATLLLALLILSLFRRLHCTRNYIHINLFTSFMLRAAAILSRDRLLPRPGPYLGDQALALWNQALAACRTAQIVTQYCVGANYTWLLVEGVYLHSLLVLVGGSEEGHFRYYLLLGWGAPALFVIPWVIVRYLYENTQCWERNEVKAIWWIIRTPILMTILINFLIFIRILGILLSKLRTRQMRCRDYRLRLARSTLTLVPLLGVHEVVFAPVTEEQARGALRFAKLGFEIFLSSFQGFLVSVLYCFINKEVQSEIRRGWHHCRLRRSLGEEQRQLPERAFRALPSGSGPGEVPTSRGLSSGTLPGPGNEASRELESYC
Procedure, shortened: (§1)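 Cells were stimulated with peptide for 30 min at 37° C, then intracellular cAMP was measured by competitive HTRF (665/620 nm ratio) and converted to nM using a cAMP standard curve. Relative EC50 and Emax came from four-parameter logistic fits of percent maximal response against peptide concentration.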

hGCGR = biological target: T4, hGCGR (Homo sapiens, UniProt P47871); assay: Functional cAMP formation (HTRF) in HEK-293 clonal cells expressing hGCGR, 0.1% bovine casein, without or with 1.0% human serum albumin; type: cell-based; details: geometric mean
T4 construct: expressed in transfected cells
T4 sequence (P47871 26-477): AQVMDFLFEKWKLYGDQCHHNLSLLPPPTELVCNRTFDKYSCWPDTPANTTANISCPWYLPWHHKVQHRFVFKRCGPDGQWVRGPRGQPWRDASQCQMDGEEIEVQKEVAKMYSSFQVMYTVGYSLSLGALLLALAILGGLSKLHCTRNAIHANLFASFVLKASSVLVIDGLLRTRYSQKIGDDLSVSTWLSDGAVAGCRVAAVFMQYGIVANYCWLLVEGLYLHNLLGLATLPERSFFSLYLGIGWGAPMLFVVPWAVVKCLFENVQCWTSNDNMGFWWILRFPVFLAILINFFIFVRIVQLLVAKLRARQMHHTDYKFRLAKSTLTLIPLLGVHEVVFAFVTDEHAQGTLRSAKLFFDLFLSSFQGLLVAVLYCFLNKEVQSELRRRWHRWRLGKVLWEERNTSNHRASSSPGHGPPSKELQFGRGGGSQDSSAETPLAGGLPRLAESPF
Procedure, shortened: as §1

hGLP-1R = hGLP-1R (Homo sapiens, UniProt P43220); assay: Functional cAMP formation (HTRF) in HEK-293 clonal cells expressing hGLP-1R, 0.1% bovine casein, without or with 1.0% human serum albumin; type: cell-based; design: expressed in transfected cells; details: for EC50: geometric mean
Sequence of hGLP-1R (P43220 24-463): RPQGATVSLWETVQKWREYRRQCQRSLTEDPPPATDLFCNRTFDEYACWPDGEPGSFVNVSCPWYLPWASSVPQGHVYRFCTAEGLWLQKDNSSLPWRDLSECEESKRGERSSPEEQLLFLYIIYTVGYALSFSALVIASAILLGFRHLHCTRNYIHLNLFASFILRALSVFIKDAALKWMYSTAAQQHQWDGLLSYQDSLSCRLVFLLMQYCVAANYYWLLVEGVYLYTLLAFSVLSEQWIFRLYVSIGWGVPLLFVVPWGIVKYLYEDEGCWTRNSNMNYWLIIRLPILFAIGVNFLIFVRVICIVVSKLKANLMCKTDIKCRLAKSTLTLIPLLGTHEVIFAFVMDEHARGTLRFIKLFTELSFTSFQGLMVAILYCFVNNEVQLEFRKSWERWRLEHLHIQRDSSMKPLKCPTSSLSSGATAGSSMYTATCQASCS
Procedure, shortened: as §1

[3] = human GcgR, geometric mean (SEM, n), read-out: Binding Affinity Ki, nM (SEM, n) hGCGR
[4] = human GLP-1R, geometric mean (SEM, n), read-out: Binding Affinity Ki, nM (SEM, n) hGLP-1R
[5] = cAMP, incubated at 37° C., 0.1% bovine casein (no human serum albumin), read-out: hGIPR EC50, nM (SEM, n)
[6] = 0.1% bovine casein and 1.0% human serum albumin, 37° C., read-out: hGCGR EC50, nM (SEM, n)
[7] = cAMP, incubated at 37° C., 0.1% bovine casein (no human serum albumin), read-out: hGCGR EC50, nM (SEM, n)
[8] = HEK293, percent of maximal response to GLP-1(7-36)NH2, 37° C., 0.1% bovine casein, arithmetic mean, read-out: hGLP-1R Emax, % ± SEM
[9] = cAMP, incubated at 37° C., 0.1% bovine casein (no human serum albumin), read-out: hGLP-1R EC50, nM (SEM, n)

T1 sequence (P47871 26-477): as the sequence (P47871 26-477) above

| Compound | Ki [1, 3] | Ki [2, 4] | EC50 (hGIPR; [5]) | EC50 (hGCGR; [6]) | EC50 (hGCGR; [7]) | Emax (hGLP-1R; [8]) | EC50 (hGLP-1R; [9]) | further results |
| --- | --- | --- | --- | --- | --- | --- | --- | --- |
| CC[C@H](C)[C@H](NC(=O)[C@H](CC(C)C)NC(=O)[C@](C)(Cc1ccc(O)cc1)NC(=O)[C@@H](CCC(=O)O)NC(=O)[C@@H](NC(=O)[C@H](Cc1ccccc1)NC(=O)[C@H](CCC(=O)O)NC(=O)C(C)(C)NC(=O)[C@H](CCC(N)=O)NC(=O)[C@H](C)NC(=O)[C@H](CCCCNC(=O)COCCOCCNC(=O)COCCOCCNC(=O)CC[C@H](NC(=O)CCCCCCCCCOc1ccc(C(=O)O)cc1)C(=O)O)NC(=O)[C@H](CCCN)NC(=O)[C@H](CC(=O)O)NC(=O)[C@H](CC(C)C)NC(=O)[C@](C)(CC(C)C)NC(=O)[C@@H](NC(=O)[C@H](CO)NC(=O)[C@H](Cc1ccncc1)NC(=O)[C@H](CC(=O)O)NC(=O)[C@H](CO)NC(=O)[C@@H](NC(=O)[C@](C)(Cc1ccccc1F)NC(=O)[C@@H](NC(=O)CNC(=O)[C@H](CCC(=O)O)NC(=O)C(C)(C)NC(=O)[C@@H](N)Cc1ccc(O)cc1)[C@@H](C)O)[C@@H](C)O)[C@@H](C)CC)[C@@H](C)CC)C(=O)N[C@@H](CCC(=O)O)C(=O)NCC(=O)NCC(=O)N[C@@H](CCCCNC(=O)COCCOCCNC(=O)COCCOCCNC(=O)CC[C@H](NC(=O)CCCCCCCCCOc1ccc(C(=O)O)cc1)C(=O)O)C(=O)N[C@@H](CO)C(=O)N[C@@H](CO)C(=O)NCC(=O)N[C@@H](C)C(=O)N1CCC[C@H]1C(=O)N1CCC[C@H]1C(=O)N1CCC[C@H]1C(=O)N[C@@H](CO)C(N)=O [Example 2] | – | – | – | – | – | – | – | Ki [1]: > 958 nM; Ki [2]: 1.04 nM; Emax (hGIPR; HEK293, read-out: hGIPR Emax, % ± SEM, 0.1% bovine casein and 1.0% human serum albumin, 37° C., percent of maximal response to GIP(1-42)NH2): 87.8 ± 5.11%; Emax (hGIPR; HEK293, read-out: hGIPR Emax, % ± SEM, percent of maximal response to GIP(1-42)NH2, 37° C., 0.1% bovine casein, arithmetic mean): 93 ± 0.813%; EC50 (hGIPR; hGIPR EC50, nM (SEM, n), 0.1% bovine casein and 1.0% human serum albumin, 37° C.): 0.659 nM; EC50 (hGIPR; hGIPR EC50, nM (SEM, n), cAMP, incubated at 37° C., 0.1% bovine casein (no human serum albumin)): 0.0154 nM; EC50 (hGCGR; hGCGR EC50, nM (SEM, n), 0.1% bovine casein and 1.0% human serum albumin, 37° C.): > 9950 nM; EC50 (hGCGR; hGCGR EC50, nM (SEM, n), cAMP, incubated at 37° C., 0.1% bovine casein (no human serum albumin)): > 9950 nM; Emax (hGLP-1R; HEK293, read-out: hGLP-1R Emax, % ± SEM, percent of maximal response to GLP-1(7-36)NH2, 37° C., 0.1% bovine casein, arithmetic mean): 93.1 ± 5.83%; EC50 (hGLP-1R; hGLP-1R EC50, nM (SEM, n), 0.1% bovine casein and 1.0% human serum albumin, 37° C.): 32.1 nM; EC50 (hGLP-1R; hGLP-1R EC50, nM (SEM, n), cAMP, incubated at 37° C., 0.1% bovine casein (no human serum albumin)): 1.14 nM |
| CC[C@H](C)[C@H](NC(=O)[C@H](CC(C)C)NC(=O)[C@](C)(Cc1ccc(O)cc1)NC(=O)[C@@H](CCC(=O)O)NC(=O)[C@@H](NC(=O)[C@H](Cc1ccccc1)NC(=O)[C@H](CCC(=O)O)NC(=O)C(C)(C)NC(=O)[C@H](CCC(N)=O)NC(=O)[C@H](C)NC(=O)[C@H](CCCCNC(=O)COCCOCCNC(=O)COCCOCCNC(=O)COCCOCCNC(=O)CC[C@H](NC(=O)CCCCCCCCCCCCC(=O)O)C(=O)O)NC(=O)[C@H](CCCN)NC(=O)[C@H](CC(=O)O)NC(=O)[C@H](CC(C)C)NC(=O)[C@](C)(CC(C)C)NC(=O)[C@@H](NC(=O)[C@H](CO)NC(=O)[C@H](Cc1ccncc1)NC(=O)[C@H](CC(=O)O)NC(=O)[C@H](CO)NC(=O)[C@@H](NC(=O)[C@](C)(Cc1ccccc1F)NC(=O)[C@@H](NC(=O)CNC(=O)[C@H](CCC(=O)O)NC(=O)C(C)(C)NC(=O)[C@@H](N)Cc1ccc(O)cc1)[C@@H](C)O)[C@@H](C)O)[C@@H](C)CC)[C@@H](C)CC)C(=O)N[C@@H](CCC(=O)O)C(=O)NCC(=O)NCC(=O)N[C@@H](CCCCNC(=O)COCCOCCNC(=O)COCCOCCNC(=O)COCCOCCNC(=O)CC[C@H](NC(=O)CCCCCCCCCCCCC(=O)O)C(=O)O)C(=O)N[C@@H](CO)C(=O)N[C@@H](CO)C(=O)NCC(=O)N[C@@H](C)C(=O)N1CCC[C@H]1C(=O)N1CCC[C@H]1C(=O)N1CCC[C@H]1C(=O)N[C@@H](CO)C(N)=O [Example 30] | > 966 nM | 2.66 nM | 0.0175 nM | > 9950 nM | > 9950 nM | 97.8 ± 10.7% | – | EC50 (hGIPR; 0.1% bovine casein and 1.0% human serum albumin, 37° C., read-out: hGIPR EC50, nM (SEM, n)): 0.337 nM; EC50 (hGLP-1R; 0.1% bovine casein and 1.0% human serum albumin, 37° C., read-out: hGLP-1R EC50, nM (SEM, n)): 18.3 nM; Emax (hGLP-1R; HEK293, 0.1% bovine casein and 1.0% human serum albumin, 37° C., percent of maximal response to GLP-1(7-36)NH2, read-out: hGLP-1R Emax, % ± SEM): 96.5 ± 0.219% |
| CC[C@H](C)[C@H](NC(=O)[C@H](CC(C)C)NC(=O)[C@](C)(Cc1ccc(O)cc1)NC(=O)[C@@H](CCC(=O)O)NC(=O)[C@@H](NC(=O)[C@H](Cc1ccccc1)NC(=O)[C@H](CCC(=O)O)NC(=O)C(C)(C)NC(=O)[C@H](CCC(N)=O)NC(=O)[C@H](C)NC(=O)[C@H](CCCCNC(=O)COCCOCCNC(=O)COCCOCCNC(=O)CC[C@H](NC(=O)CCCCCCCCCCCCC(=O)O)C(=O)O)NC(=O)[C@H](CCCN)NC(=O)[C@H](CC(=O)O)NC(=O)[C@H](CC(C)C)NC(=O)[C@](C)(CC(C)C)NC(=O)[C@@H](NC(=O)[C@H](CO)NC(=O)[C@@](C)(NC(=O)[C@H](CC(=O)O)NC(=O)[C@H](CO)NC(=O)[C@@H](NC(=O)[C@](C)(Cc1ccccc1F)NC(=O)[C@@H](NC(=O)CNC(=O)[C@H](CCC(=O)O)NC(=O)C(C)(C)NC(=O)[C@@H](N)Cc1ccc(O)cc1)[C@@H](C)O)[C@@H](C)O)C(C)C)[C@@H](C)CC)[C@@H](C)CC)C(=O)N[C@@H](CCC(=O)O)C(=O)NCC(=O)NCC(=O)N[C@@H](CCCCNC(=O)COCCOCCNC(=O)COCCOCCNC(=O)CC[C@H](NC(=O)CCCCCCCCCCCCC(=O)O)C(=O)O)C(=O)N[C@@H](CO)C(=O)N[C@@H](CO)C(=O)NCC(=O)N[C@@H](C)C(=O)N1CCC[C@H]1C(=O)N1CCC[C@H]1C(=O)N1CCC[C@H]1C(=O)N[C@@H](CO)C(N)=O [Example 52] | > 966 nM | 1.16 nM | – | > 9950 nM | > 9950 nM | – | 0.384 nM | Emax (hGIPR; HEK293, 0.1% bovine casein and 1.0% human serum albumin, 37° C., percent of maximal response to GIP(1-42)NH2, read-out: hGIPR Emax, % ± SEM): 87.6% |
| CCCCCCCCCCCC(=O)N[C@@H](CCC(=O)NCCOCCOCC(=O)NCCOCCOCC(=O)NCCCC[C@H](NC(=O)[C@H](CCCN)NC(=O)[C@H](CC(=O)O)NC(=O)[C@H](CC(C)C)NC(=O)[C@](C)(CC(C)C)NC(=O)[C@@H](NC(=O)[C@H](CO)NC(=O)[C@H](Cc1ccncc1)NC(=O)[C@H](CC(=O)O)NC(=O)[C@H](CO)NC(=O)[C@@H](NC(=O)[C@](C)(Cc1ccccc1F)NC(=O)[C@@H](NC(=O)CNC(=O)[C@H](CCC(=O)O)NC(=O)C(C)(C)NC(=O)[C@@H](N)Cc1ccc(O)cc1)[C@@H](C)O)[C@@H](C)O)[C@@H](C)CC)C(=O)N[C@@H](C)C(=O)N[C@@H](CCC(N)=O)C(=O)NC(C)(C)C(=O)N[C@@H](CCC(=O)O)C(=O)N[C@@H](Cc1ccccc1)C(=O)N[C@H](C(=O)N[C@H](CCC(=O)O)C(=O)N[C@@](C)(Cc1ccc(O)cc1)C(=O)N[C@@H](CC(C)C)C(=O)N[C@H](C(=O)N[C@@H](CCCCNC(=O)COCCOCCNC(=O)COCCOCCNC(=O)CC[C@H](NC(=O)CCCCCCCCCCC)C(=O)O)C(=O)NCC(=O)NCC(=O)N1CCC[C@H]1C(=O)N[C@@H](CO)C(=O)N[C@@H](CO)C(=O)NCC(=O)N[C@@H](C)C(=O)N1CCC[C@H]1C(=O)N1CCC[C@H]1C(=O)N1CCC[C@H]1C(=O)N[C@@H](CO)C(N)=O)[C@@H](C)CC)[C@@H](C)CC)C(=O)O [Example 139] | 109 nM | 0.268 nM | 0.0108 nM | – | > 9950 nM | 111% | 0.141 nM | – |
